Several values for one entry are separate records, joined by “and”; a condition that tells them apart may be missing. Equal entries are not always repeated.
System: 454973-116-R2-J3-PDC spheroids, viability, % test/control
Experiment: Anticancer human tumor 454973-116-R2-J3-PDC patient-derived pancreatic carcinoma cell line growth inhibition [GQUAD]
Details: spheroids with HUVEC and MSC; for viability, T/C: stronger effect = lower value
Method in brief: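 Multi-cell-type spheroids of tumor cells with HUVEC and mesenchymal stem cells, treated with drug combinations. Concentrations descend in half-log steps from near clinical Cmax, or from 10 microM where Cmax is unknown; viability read-out.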
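Note: spheroids exposed to compounds for seven days.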
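Throughout, for viability, T/C: 100% = DMSO vehicle control viability.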

## CC1COCCN1c1cc(C2(O)CC3CCC(C2)O3)c2cnn(-c3ccn[nH]3)c2n1 (centres undefined) + CN(C)c1ccc(Nc2c3ccc(NC(=O)CCN4CCCC4)cc3nc3cc(NC(=O)CCN4CCCC4)ccc23)cc1
Curve of first compound, second compound 0.0316 µM
  IC50: 176 nM
Curve of first compound, second compound 0.1 µM
  IC50: 174 nM
Curve of first compound, second compound 0.316 µM
  IC50: 154 nM
Curve of first compound, second compound 1 µM
  IC50: 146 nM
Curve of first compound, second compound 3.16 µM
  IC50: 167 nM
Curve of first compound, second compound 10 µM
  IC50: 99.5 nM
Second compound 0.0316 µM, first compound 0.0316 µM
  viability, T/C: 106%
Second compound 0.0316 µM, first compound 0.1 µM
  viability, T/C: 63.8%
Second compound 0.0316 µM, first compound 0.316 µM
  viability, T/C: 35.4%
Second compound 0.0316 µM, first compound 1 µM
  viability, T/C: 23.3%
Second compound 0.0316 µM, first compound 3.16 µM
  viability, T/C: 21.4%
Second compound 0.0316 µM, first compound 10 µM
  viability, T/C: 15%
Second compound 0.1 µM, first compound 0.0316 µM
  viability, T/C: 98.6%
Second compound 0.1 µM, first compound 0.1 µM
  viability, T/C: 66.8%
Second compound 0.1 µM, first compound 0.316 µM
  viability, T/C: 31.2%
Second compound 0.1 µM, first compound 1 µM
  viability, T/C: 23.4%
Second compound 0.1 µM, first compound 3.16 µM
  viability, T/C: 22.4%
Second compound 0.1 µM, first compound 10 µM
  viability, T/C: 15%
Second compound 0.316 µM, first compound 0.0316 µM
  viability, T/C: 99.5%
Second compound 0.316 µM, first compound 0.1 µM
  viability, T/C: 61.5%
Second compound 0.316 µM, first compound 0.316 µM
  viability, T/C: 30.6%
Second compound 0.316 µM, first compound 1 µM
  viability, T/C: 21%
Second compound 0.316 µM, first compound 3.16 µM
  viability, T/C: 23%
Second compound 0.316 µM, first compound 10 µM
  viability, T/C: 13.1%
Second compound 1 µM, first compound 0.0316 µM
  viability, T/C: 95.3%
Second compound 1 µM, first compound 0.1 µM
  viability, T/C: 58.4%
Second compound 1 µM, first compound 0.316 µM
  viability, T/C: 33.1%
Second compound 1 µM, first compound 1 µM
  viability, T/C: 19.5%
Second compound 1 µM, first compound 3.16 µM
  viability, T/C: 20.1%
Second compound 1 µM, first compound 10 µM
  viability, T/C: 15.5%
Second compound 3.16 µM, first compound 0.0316 µM
  viability, T/C: 84%
Second compound 3.16 µM, first compound 0.1 µM
  viability, T/C: 63.2%
Second compound 3.16 µM, first compound 0.316 µM
  viability, T/C: 33.6%
Second compound 3.16 µM, first compound 1 µM
  viability, T/C: 19.9%
Second compound 3.16 µM, first compound 3.16 µM
  viability, T/C: 22.4%
Second compound 3.16 µM, first compound 10 µM
  viability, T/C: 14.9%
Second compound 10 µM, first compound 0.0316 µM
  viability, T/C: 65.7%
Second compound 10 µM, first compound 0.1 µM
  viability, T/C: 53%
Second compound 10 µM, first compound 0.316 µM
  viability, T/C: 30.4%
Second compound 10 µM, first compound 1 µM
  viability, T/C: 24.4%
Second compound 10 µM, first compound 3.16 µM
  viability, T/C: 23%
Second compound 10 µM, first compound 10 µM
  viability, T/C: 11.2%

## O=C(c1cc(Cc2n[nH]c(=O)c3ccccc23)ccc1F)N1CCN(C(=O)C2CC2)CC1
Compound 0.0316 µM
  viability, T/C: 101% and 114% and 107%
Compound 0.1 µM
  viability, T/C: 90.7% and 97.5% and 95.4%
Compound 0.316 µM
  viability, T/C: 91.1% and 97.2% and 91.3%
Compound 1 µM
  viability, T/C: 96.4% and 96.3% and 90.3%
Compound 3.16 µM
  viability, T/C: 83.8% and 88.4% and 87.7%
Compound 10 µM
  viability, T/C: 63.8% and 66.6% and 66.7%
Curve of compound
  IC50: > 10000 nM

Source: PubChem BioAssay AID2060508 (Molecular Pharmacology Branch, DTP, NCI, 2025)
